# From ChEMBL document CHEMBL1201862, “PubChem BioAssay data set” (2004)
# The source made the active and inactive calls.
# How the values were obtained:
# Bcl-2-related protein A1 = target: T1, Bcl-2-related protein A1 (Mus musculus, UniProt Q07440); format: functional;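 further: confirmatory dose–response counterscreen on Bfl-1, used to check hits from a UBC13 polyubiquitin inhibitor campaign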
# T1 sequence (Q07440 whole entry): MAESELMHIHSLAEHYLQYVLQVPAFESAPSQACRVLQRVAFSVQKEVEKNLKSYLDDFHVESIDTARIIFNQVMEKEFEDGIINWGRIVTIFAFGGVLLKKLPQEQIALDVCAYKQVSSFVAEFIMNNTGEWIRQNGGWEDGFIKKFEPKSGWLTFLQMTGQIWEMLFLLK
# [1] = target: T2, Ubiquitin-conjugating enzyme E2 N (Homo sapiens, UniProt P61088); format: functional
# T2 sequence (P61088 whole entry): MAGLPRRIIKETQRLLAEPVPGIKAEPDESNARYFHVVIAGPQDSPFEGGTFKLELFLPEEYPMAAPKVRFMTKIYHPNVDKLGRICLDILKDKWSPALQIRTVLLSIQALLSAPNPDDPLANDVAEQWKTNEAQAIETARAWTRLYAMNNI
# [2] = target: T2, Ubiquitin-conjugating enzyme E2 N; format: functional; remark: listed apart in the source
# [3] = target: G-protein coupled receptor 55 (Homo sapiens, UniProt Q9Y2T6); assay: GPR55 antagonists, SAR follow-up, counter-screen for GPR35 antagonist project, imaging, image-based (AID 2397); format: functional
# Chain of G-protein coupled receptor 55 (Q9Y2T6 whole entry): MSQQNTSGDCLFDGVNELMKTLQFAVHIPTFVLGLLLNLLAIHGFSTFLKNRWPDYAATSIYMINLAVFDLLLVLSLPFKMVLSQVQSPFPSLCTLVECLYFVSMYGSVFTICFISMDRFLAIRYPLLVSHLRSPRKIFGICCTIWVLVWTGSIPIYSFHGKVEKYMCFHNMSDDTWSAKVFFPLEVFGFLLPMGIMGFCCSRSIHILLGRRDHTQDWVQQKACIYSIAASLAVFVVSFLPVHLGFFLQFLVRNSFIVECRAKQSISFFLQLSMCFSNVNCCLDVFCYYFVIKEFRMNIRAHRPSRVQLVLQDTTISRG
# [4] = target: T3, G-protein coupled receptor 35 (Homo sapiens, UniProt Q9HC97); assay: GPR35 antagonists blocking zaprinast-driven arrestin recruitment, primary screen, imaging, U2OS, beta-arrestin-GFP, zaprinast agonist (AID 2058); format: functional;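 further: antagonist potency meaning inhibition of agonist-induced arrestin redistribution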
# T3 sequence (Q9HC97 whole entry): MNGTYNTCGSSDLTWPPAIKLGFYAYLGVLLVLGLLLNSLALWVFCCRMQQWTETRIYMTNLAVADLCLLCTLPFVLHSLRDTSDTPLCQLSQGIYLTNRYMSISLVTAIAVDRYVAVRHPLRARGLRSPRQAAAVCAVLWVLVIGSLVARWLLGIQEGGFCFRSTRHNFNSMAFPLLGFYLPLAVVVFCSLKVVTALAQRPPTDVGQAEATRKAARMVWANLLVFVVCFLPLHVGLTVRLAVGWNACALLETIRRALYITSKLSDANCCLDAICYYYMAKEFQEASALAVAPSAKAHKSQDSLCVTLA
# Protein RecA = target: T4, Protein RecA (Mycobacterium tuberculosis, UniProt P9WHJ3); assay: Fluorescence Cell-Free Homogeneous Dose Retest to Identify Inhibitors of RecA-Intein Splicing Activity. [Related pubchem assays (depositor defined):AID2097, AID2223, AID489010, AID492950]; format: functional
# T4 sequence (P9WHJ3 whole entry): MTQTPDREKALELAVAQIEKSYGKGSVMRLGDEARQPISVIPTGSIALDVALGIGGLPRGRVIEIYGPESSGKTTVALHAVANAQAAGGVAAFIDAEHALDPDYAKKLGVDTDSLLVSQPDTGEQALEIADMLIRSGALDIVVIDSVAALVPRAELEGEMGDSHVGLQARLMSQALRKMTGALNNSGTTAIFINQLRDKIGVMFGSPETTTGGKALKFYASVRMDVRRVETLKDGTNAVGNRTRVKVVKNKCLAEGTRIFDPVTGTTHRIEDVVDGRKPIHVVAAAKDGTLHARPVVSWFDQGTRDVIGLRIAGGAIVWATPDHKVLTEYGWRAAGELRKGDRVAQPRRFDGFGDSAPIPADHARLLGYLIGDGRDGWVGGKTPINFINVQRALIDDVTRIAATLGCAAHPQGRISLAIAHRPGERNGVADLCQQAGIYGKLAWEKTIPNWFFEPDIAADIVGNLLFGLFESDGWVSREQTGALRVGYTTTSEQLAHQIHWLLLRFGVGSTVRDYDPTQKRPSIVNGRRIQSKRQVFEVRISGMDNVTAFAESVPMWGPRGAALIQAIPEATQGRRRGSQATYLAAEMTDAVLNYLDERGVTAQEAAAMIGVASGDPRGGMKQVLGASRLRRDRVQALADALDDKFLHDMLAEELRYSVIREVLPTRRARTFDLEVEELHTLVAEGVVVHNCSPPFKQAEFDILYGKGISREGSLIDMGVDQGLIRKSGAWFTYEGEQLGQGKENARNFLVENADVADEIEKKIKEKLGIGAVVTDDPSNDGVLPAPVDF
# [5] = target: T3, G-protein coupled receptor 35; assay: SAR Analysis for the identification of Selective Antagonists of ERK1/2 Activity in GPR35-Overexpressing U2OS Cells. [Related pubchem assays: 2079, 2058 ]; format: functional, cell-based
# [6] = target: T5, Replicative DNA helicase DnaB (Mycobacterium tuberculosis, UniProt P9WMR3); assay: DnaB intein splicing inhibitors, dose response, biochemical, cell-free fluorescence (AID 449749); format: functional
# T5 sequence (P9WMR3 whole entry): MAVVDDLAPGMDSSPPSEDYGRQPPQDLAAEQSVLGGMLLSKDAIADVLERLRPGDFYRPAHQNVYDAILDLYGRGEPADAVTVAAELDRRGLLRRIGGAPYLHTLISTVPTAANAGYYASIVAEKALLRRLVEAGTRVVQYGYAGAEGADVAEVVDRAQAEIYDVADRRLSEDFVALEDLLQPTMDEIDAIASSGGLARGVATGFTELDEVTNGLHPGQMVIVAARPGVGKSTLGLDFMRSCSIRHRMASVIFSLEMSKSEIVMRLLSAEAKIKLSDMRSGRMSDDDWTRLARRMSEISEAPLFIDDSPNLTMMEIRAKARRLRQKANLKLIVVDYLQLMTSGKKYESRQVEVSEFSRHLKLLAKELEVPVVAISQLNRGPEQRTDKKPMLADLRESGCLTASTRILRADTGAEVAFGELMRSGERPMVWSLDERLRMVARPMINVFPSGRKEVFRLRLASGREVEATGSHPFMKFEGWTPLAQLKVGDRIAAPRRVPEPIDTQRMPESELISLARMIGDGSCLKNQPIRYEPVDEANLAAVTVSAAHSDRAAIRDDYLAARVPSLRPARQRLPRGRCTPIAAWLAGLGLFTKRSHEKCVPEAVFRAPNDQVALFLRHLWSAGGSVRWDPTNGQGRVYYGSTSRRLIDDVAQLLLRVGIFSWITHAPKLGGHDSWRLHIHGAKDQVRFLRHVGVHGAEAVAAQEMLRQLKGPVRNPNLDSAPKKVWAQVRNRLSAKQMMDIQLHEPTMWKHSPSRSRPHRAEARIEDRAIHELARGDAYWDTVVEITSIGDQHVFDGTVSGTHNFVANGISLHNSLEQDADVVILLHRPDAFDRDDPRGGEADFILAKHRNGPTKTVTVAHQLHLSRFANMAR
# Caspase-3 = target: T6, Caspase-3 (Homo sapiens, UniProt P42574); format: functional;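 further: Dose-response selectivity test against caspase-3 for candidate inhibitors of sentrin-specific proteases (SENPs)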
# T6 sequence (P42574 whole entry): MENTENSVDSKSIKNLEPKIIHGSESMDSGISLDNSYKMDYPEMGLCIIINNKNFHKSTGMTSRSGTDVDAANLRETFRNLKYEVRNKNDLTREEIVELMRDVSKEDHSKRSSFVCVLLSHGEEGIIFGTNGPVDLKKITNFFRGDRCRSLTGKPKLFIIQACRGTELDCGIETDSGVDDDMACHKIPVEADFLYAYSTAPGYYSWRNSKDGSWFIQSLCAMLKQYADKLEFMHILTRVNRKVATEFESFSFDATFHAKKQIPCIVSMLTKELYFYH
# [7] = target: T7, Sentrin-specific protease 8 (Homo sapiens, UniProt Q96LD8); format: functional;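 further: luminescence read-out of SENP8 inhibition, dose-response confirmation following an ultra-high-throughput screen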
# T7 sequence (Q96LD8 whole entry): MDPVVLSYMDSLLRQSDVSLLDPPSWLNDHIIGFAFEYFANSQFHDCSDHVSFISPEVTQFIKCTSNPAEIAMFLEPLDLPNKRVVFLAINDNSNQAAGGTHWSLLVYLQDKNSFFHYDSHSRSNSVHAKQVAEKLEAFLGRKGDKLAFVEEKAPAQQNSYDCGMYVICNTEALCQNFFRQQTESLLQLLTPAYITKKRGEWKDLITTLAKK
# [8] = target: T8, Sentrin-specific protease 7 (Homo sapiens, UniProt Q9BQF6); format: functional;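 further: Luminescence-based dose-response confirmation of ultra-high-throughput screening hits, measuring inhibition of SENP7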
# T8 sequence (Q9BQF6 whole entry): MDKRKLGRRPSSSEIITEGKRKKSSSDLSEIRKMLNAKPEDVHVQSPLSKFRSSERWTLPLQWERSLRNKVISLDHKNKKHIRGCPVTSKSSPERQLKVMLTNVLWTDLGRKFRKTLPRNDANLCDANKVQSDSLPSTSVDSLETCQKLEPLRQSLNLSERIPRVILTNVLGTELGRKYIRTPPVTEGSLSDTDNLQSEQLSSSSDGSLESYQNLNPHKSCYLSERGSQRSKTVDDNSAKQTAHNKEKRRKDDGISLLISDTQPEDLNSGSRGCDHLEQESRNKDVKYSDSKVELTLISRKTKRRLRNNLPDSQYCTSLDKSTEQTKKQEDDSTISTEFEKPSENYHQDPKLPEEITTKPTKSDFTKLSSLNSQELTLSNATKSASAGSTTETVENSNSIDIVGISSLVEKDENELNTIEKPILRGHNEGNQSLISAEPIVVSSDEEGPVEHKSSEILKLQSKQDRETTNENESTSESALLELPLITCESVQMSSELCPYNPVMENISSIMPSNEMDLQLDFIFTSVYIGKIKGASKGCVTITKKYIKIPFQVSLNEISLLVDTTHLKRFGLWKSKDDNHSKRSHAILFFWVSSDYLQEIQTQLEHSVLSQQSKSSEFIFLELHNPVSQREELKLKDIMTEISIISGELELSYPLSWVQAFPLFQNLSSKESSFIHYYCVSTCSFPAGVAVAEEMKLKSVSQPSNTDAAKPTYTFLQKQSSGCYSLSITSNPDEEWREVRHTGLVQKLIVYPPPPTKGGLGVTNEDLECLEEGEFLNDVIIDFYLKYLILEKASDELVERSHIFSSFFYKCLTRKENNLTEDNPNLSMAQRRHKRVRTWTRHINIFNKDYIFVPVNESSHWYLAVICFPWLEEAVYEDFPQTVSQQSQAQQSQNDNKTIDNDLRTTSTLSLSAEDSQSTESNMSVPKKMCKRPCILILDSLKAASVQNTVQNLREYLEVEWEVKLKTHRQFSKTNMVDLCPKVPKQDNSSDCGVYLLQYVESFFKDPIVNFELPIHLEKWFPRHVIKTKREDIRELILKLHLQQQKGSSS
# [9] = target: T9, Sentrin-specific protease 6 (Homo sapiens, UniProt Q9GZR1); format: functional;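 further: Luminescence-based dose-response confirmatory assay of SENP6 inhibition, following up an ultra-high-throughput screen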
# T9 sequence (Q9GZR1 whole entry): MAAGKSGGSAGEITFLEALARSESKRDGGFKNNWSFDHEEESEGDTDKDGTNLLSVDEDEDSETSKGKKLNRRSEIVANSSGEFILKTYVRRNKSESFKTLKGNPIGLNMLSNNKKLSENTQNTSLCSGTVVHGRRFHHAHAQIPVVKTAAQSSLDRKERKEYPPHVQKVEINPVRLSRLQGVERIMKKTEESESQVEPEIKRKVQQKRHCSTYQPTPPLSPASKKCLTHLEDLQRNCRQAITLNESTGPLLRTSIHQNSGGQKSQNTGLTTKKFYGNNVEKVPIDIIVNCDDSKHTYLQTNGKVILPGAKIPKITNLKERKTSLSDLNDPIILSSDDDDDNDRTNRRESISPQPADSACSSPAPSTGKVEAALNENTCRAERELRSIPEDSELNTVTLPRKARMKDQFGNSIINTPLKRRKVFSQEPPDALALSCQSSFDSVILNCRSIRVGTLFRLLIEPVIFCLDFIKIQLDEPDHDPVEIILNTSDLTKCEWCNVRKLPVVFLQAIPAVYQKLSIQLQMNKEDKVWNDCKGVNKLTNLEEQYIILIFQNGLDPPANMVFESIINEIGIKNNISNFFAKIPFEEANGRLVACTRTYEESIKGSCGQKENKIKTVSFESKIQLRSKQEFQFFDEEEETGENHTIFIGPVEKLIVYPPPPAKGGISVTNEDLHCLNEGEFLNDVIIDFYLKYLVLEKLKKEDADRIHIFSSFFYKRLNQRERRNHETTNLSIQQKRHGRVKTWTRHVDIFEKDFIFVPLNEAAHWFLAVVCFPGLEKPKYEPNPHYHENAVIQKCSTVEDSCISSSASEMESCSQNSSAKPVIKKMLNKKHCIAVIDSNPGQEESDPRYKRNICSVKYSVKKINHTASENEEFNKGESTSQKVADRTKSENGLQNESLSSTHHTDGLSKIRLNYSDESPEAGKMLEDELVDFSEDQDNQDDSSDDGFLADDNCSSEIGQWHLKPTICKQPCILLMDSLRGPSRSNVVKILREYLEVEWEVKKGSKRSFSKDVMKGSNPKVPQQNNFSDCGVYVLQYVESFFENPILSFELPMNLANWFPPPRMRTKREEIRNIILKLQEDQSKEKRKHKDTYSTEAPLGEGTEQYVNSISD
# [10] = Luminescence Cell-Based Dose Retest to Confirm Inhibitors of Cancer Stem Cells. [Related pubchem assays (depositor defined):AID2717, AID2721]; format: functional; conditions: Homo sapiens
# [11] = target: Glucose-6-phosphate 1-dehydrogenase (Homo sapiens, UniProt P11413); assay: human G6PD enzyme inhibitors, dose response, selectivity assay for P. falciparum G6PD inhibitor project, biochemical, fluorescence (AID 504792); format: functional
# Chain of Glucose-6-phosphate 1-dehydrogenase (P11413 whole entry): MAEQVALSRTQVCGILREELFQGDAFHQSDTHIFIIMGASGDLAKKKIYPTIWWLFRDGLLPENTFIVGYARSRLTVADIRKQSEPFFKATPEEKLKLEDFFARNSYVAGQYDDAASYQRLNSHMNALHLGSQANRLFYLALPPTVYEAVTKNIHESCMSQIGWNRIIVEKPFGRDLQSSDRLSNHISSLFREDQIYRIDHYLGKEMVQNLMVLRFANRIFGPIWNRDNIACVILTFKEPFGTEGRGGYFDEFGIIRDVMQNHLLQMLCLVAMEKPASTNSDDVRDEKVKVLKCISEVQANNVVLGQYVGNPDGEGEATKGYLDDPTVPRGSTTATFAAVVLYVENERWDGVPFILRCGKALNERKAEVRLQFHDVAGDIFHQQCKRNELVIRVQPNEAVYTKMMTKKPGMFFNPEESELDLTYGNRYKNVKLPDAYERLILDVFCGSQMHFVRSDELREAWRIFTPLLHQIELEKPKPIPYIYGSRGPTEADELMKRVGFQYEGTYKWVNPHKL
# [12] = target: Voltage-dependent T-type calcium channel subunit alpha-1H (Homo sapiens, UniProt O95180); assay: Cav3.2 T-type channel blockers, cell-based, SynthLib3 library, HEK293 Cav3.2, fluorescence (AID 493041); format: functional
# Chain of Voltage-dependent T-type calcium channel subunit alpha-1H (O95180 whole entry): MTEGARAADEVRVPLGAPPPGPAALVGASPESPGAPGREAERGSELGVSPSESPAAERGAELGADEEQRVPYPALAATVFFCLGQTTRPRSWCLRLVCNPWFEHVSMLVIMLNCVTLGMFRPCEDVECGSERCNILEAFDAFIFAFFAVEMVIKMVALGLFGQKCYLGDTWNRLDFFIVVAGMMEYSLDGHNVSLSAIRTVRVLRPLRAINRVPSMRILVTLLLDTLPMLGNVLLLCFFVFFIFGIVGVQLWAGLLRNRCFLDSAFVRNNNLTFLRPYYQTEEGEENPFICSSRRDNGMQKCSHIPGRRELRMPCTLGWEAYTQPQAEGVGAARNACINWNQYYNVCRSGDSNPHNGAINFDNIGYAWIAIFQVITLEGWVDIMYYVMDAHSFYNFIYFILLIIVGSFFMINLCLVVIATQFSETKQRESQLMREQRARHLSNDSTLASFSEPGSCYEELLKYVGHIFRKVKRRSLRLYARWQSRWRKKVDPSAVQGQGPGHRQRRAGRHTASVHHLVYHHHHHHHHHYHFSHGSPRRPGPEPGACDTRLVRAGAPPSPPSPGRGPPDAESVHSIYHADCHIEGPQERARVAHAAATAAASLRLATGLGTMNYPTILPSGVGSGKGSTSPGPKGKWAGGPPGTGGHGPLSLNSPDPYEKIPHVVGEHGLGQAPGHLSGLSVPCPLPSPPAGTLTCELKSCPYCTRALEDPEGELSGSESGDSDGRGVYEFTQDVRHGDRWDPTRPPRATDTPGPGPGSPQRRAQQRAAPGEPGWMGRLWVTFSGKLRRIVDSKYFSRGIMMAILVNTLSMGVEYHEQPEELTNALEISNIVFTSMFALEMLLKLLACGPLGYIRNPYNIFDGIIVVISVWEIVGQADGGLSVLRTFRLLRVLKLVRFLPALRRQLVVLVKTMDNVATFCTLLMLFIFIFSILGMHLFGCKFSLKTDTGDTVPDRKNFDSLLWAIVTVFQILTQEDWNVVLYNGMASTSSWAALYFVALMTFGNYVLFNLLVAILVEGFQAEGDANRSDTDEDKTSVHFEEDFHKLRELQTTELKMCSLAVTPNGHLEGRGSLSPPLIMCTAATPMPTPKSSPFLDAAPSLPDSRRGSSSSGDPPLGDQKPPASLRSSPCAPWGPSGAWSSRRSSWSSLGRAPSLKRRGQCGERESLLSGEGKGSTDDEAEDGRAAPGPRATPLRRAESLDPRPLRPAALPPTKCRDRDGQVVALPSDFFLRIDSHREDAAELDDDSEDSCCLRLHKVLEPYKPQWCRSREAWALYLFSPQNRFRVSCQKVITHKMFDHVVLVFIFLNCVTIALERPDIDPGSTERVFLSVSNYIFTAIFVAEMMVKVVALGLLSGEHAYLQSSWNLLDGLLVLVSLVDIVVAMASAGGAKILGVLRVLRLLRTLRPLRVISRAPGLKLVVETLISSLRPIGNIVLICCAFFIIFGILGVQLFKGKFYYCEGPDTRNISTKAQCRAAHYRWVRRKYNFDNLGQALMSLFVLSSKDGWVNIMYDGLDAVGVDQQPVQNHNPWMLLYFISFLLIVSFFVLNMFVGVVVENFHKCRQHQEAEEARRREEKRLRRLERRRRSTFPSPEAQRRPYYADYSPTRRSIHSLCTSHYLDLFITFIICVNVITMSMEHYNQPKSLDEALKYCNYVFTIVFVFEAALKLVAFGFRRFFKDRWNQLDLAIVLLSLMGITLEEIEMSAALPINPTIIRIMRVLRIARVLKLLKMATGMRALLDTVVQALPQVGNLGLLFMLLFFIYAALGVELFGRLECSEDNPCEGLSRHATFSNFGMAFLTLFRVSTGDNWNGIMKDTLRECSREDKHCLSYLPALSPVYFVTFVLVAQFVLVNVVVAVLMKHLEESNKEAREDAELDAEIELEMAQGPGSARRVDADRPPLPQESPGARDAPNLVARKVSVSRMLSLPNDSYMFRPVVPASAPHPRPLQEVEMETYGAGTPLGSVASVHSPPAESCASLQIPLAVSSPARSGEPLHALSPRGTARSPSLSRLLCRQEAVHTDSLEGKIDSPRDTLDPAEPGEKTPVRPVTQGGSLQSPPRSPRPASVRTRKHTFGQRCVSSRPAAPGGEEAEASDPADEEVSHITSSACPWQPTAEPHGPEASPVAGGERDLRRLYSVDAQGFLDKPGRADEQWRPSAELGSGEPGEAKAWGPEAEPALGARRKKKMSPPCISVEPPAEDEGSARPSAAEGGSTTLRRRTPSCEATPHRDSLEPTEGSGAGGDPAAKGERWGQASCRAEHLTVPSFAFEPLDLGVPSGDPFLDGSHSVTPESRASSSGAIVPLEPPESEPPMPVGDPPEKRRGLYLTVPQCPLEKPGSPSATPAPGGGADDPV
Compound,IC50 (Bcl-2-related protein A1),IC50 [1],IC50 [2],IC50 [3],IC50 [4],IC50 [5],EC50 [12],other results
COC(=O)c1c(-c2ccc(SC)cc2)sc2ccc(OC)cc12,> 20 µM (inactive),> 20 µM (inactive),18.9 µM (active),–,–,–,–,–
O=C(CCCN1C(=O)S/C(=C\C=C\c2ccccc2)C1=O)Nc1ccc(C(=O)O)cc1,–,–,–,12.9 µM (inactive),1.26 µM (active),9.54 µM (active),–,EC50 (Protein RecA): 51.2 µM (active); AC50 [6]: 39.2 µM (active)
O=C(CCCN1C(=O)S/C(=C/c2ccccc2)C1=S)Nc1ccc(C(=O)O)cc1,–,–,–,> 32 µM (inactive),1.51 µM (active),1.45 µM (active),–,IC50 (Caspase-3): 23.5 µM (active); IC50 [7]: 29.8 µM (active); IC50 [8]: 21.3 µM (active); IC50 [9]: 23.7 µM (active)
NCCNc1ccc(C(=O)N2c3ccccc3Sc3ccccc32)cc1[N+](=O)[O-],> 20 µM (inactive),10.9 µM (active),9.58 µM (active),–,–,–,–,AC50 [10]: 6.81 µM (active); IC50 [11]: > 80 µM (inactive)
CCCN1C[C@@H]2C(CNC(=O)c3cc(Cl)cc(Cl)c3)[C@@H]2C1 (some centres not stated),–,–,–,–,–,–,10 µM (active),–
CC(Cc1nnc(NC(=O)COc2ccc(F)cc2Cl)o1)CC(C)(C)C (configuration not stated),–,–,–,–,–,–,1.2 µM (active),–
